# Columns and labels:
# [1] = Formation Constant (Log KML) of metal chelant complex with calcium; assay type: physicochemical; settings: formation constant for calcium, concentrations in mol/dm^3, logarithm
# Excerpt: (§1) The Formation Constant of a metal chelant interaction is defined as: [formula] where: [ML]=concentration of metal ligand complex at equilibrium [M]=concentration of free metal ion [L]=concentration of free ligand in a fully deprotonated form KML=formation constant for the metal chelant complex. All concentrations are expressed in mol/dm^3. Formation Constants are conveniently expressed as logarithms.
# [2] = Formation Constant (Log KML) of metal chelant complex with copper; assay type: physicochemical; settings: formation constant for copper, concentrations in mol/dm^3, logarithm
# Excerpt: as §1
Compound,Log KML Ca [1],Log KML Cu [2]
C[C@H](N)C(=O)O [Alanine],1.3,8.1
NC(=O)C[C@H](N)C(=O)O [Asparagine],,7.8
"O=C(O)CC(NCCNC(CC(=O)O)C(=O)O)C(=O)O (centres unmarked) [EDDS, ethylenediamine-N,N′-disuccinic acid]",4.6,18.4
NC(=O)CC[C@H](N)C(=O)O [Glutamine],,7.7
NCC(=O)O [Glycine],1.1,8.2
N[C@@H](Cc1c[nH]cn1)C(=O)O [Histidine],1.2,10.2
O=C(O)[C@@H]1CCCN1 [Proline],,8.8
N[C@@H](CO)C(=O)O [Serine],1.4,7.9
N[C@@H](Cc1c[nH]c2ccccc12)C(=O)O [Tryptophan],,8.2

# — patent US9642787B2, “Method of inhibiting copper deposition on hair” (The Procter & Gamble Company, priority 2014, dated 2017)
